Data as given in patent publication US20130142734A1, “TARGETED DELIVERY SYSTEMS FOR DIAGNOSTIC APPLICATIONS” (priority 2010, published 2013).
Several values for one entry are separate records, joined by “and”; a condition that tells them apart may be missing. Identical values can stand only once. Ends that are not written are not given here.

Key:
[1] = Emission spectrum and fluorescence intensity of NIR dyes; assay type: physicochemical; conditions: excitation at 650 nm
Experimental: FIG. 1 depicts the emission spectrum for NIR Dyes (ICG, IR-783, and 783-S-Ph-COOH) following excitation at 650 nm (A) and 690 nm (B).
Fluorescence intensity of the NIR dyes was evaluated as well, following excitation at 650 nm (FIG. 2A).

P-(GGFLGK-IR783)5% = system: T1, P-(GGFLGK-IR783)5%
T1 sequence: GGFLGK

P-(GGFLGK-IR783)2.5% = system: T2, P-(GGFLGK-IR783)2.5%
T2 sequence: GGFLGK

P-(GGFLGK-IR783)7.5% = system: T3, P-(GGFLGK-IR783)7.5%
T3 sequence: GGFLGK

Cathepsin B = Cathepsin B (Homo sapiens, UniProt P07858); assay: Cathepsin B degradation of the linker (fluorescence activation); assay type: biochemical; conditions: after 22 h of incubation; Cathepsin B 1.5 U, sodium acetate buffer pH 5.5
Experimental: 0.5 mg polymer was dissolved in 1 ml sodium acetate buffer (pH=5.5). Cathepsin B (1.5 U) was added to the solution and incubate for 24 hours at 370 C. The fluorescence intensity (excitation 650 nm & 690 nm, emission range 820 nm) was measured every 30 minutes.
The effects of IR-783-S-Ph-COOH loading on CB mediated fluorescence activation was tested.

SW-480 cells [2] = assay: Imaging of rectally implanted SW-480 tumors in female mice; assay type: in vivo
Experimental: The ability of the probe to detect solid tumors in female mice bearing rectally tumors injected with SW-480 cells was tested. The mice were injected with 0.2 mg/200 μl of P-(GGFLGK (SEQ ID NO: 11)-IR783)2.5% and the whole body was imaged 4 and 24 h post injection. […] However images from excised organs taken 24 h post injection indicated a 4-fold increase in the average fluorescence efficiency between colon and tumor tissue (FIG. 8A).

[3] = Effect of dye loading on fluorescence intensity and quenching of HPMA copolymer-IR783 conjugates; assay type: physicochemical; conditions: dissolved in DDW; Ex: 690 nm, Em: 820 nm
Experimental: HPMA conjugates of various IR-783-S-Ph-COOH loadings were dissolved in DDW and their fluorescence intensity (Ex: 690 nm, Em: 820 nm). […] These observations confirm the decrease in fluorescence intensity with increasing the loading of IR-783-S-Ph-COOH on p-HPMA copolymer due to the quenching of fluorescent signal.
The effect of NIR813 loading on p-HPMA-NIR813 quenching efficiency is shown in FIG. 3 and a complete quenching was achieved when the loading level of IR-783 on P—HPMA-IR-783 was 15%.

SW-480 cells [4] = assay: Imaging of orthotopically implanted SW-480 colon tumors in nu/nu athymic mice; assay type: in vivo; conditions: for time post injection of accumulation in tumor area: 2 mg i.v., orthotopic SW-480 tumors
Experimental: Three types of mouse models were employed to test the ability of the probes to detect solid tumors in the GI tract.
Nu/nu athymic mice were injected orthotopically into the descending colon of female with SW-480 cells. After tumors reached ˜0.5 cm in diameter, mice were injected i.v. with 2 mg of IR-783 bearing polymeric probe. The results in the orthotopically implanted tumors confirm the accumulation of both P-(GGFLGK (SEQ ID NO: 11)-IR783)2.5% and P-(GGFLGK (SEQ ID NO: 11)-IR783)7.5% polymeric probes in tumor area about 4 h post injection and retention at the tumor site for at least 48 h.
Biodistribution analysis indicated the presence of the probe in the tumor, kidneys, galbladder and the urine. The T/B ratio following whole body imaging (WBI) was 2.4 in mice treated with P-(GGFLGK (SEQ ID NO: 11)-IR783)7.5%, 4 h post injection (FIG. 6). […] The calculated ratio of the average fluorescence efficiency between colon and tumor tissue was ˜9 (FIG. 7).

HT-29 cells = assay: Imaging of rectal HT-29 tumors in female mice; assay type: in vivo
Experimental: The ability of the probe to detect solid tumors in female mice bearing rectal tumors introduced via injection with HT-29 cells was also evaluated. After tumors reached ˜0.5 cm in diameter, mice were injected i.v. with 2 mg of IR-783 bearing polymeric probe. Mice were kept in metabolic cages throughout the experiment (48 h). The mice were injected with 1 mg/200 μl of P-(GGFLGK (SEQ ID NO: 11)-IR783)7.5% (CB cleavable linker) and the whole body was imaged 4, 24 and 48 h post injection. […] In images from excised organs taken 24 h post injection indicated only 1.5-fold increase in the average fluorescence efficiency between colon and tumor tissue (T/C) (1.64 and 1.3-fold of increase, FIG. 9b and FIG. 10b, respectively), due to the high background fluorescence along the gastrointestinal tract (stomach, colon and […]), even though treated in metabolic cages. Once the tumor to heart ratio (T/H) was measured, an increased of about 8-10-fold was calculated. When mice were injected with the polymeric probe with non-cleavable linker P-(AP-IR783)7.5%, and the whole body was imaged 4 post injection, the T/B ratio was 1.3.

Question: With `CC1(C)C(/C=C/C=C/C=C/C=C2\N(CCCCS(=O)(=O)O)c3ccc4ccccc4c3C2(C)C)=[N+](CCCCS(=O)(=O)[O-])c2ccc3ccccc3c21` [ICG, indocyanine green] as the molecule, how does the maximal emission wavelength [1] read?
Answer: Its maximal emission wavelength is 810 nm.

Question: For `CC1(C)C(=CC=C2CCCC(C=CC3=[N+](CCCCS(=O)(=O)O)c4ccccc4C3(C)C)=C2Cl)N(CCCCS(=O)(=O)O)c2ccccc21.[OH-]` [IR-783, 2-[2-[2-Chloro-3-[2-[1,3-dihydro-3,3-dimethyl-1-(4-sulfobutyl)-2H-indol-2-ylidene]-ethylidene]-1-cyclohexen-1-yl]-ethenyl]-3,3-dimethyl-1-(4-sulfobutyl)-3H-indolium hydroxide], which maximal emission wavelength [1] is on record?
Answer: Its maximal emission wavelength is 800 nm.

Question: Which maximal emission wavelength [1] does the source give for `CC1(C)C(/C=C/C2=C(Sc3ccc(C(=O)O)cc3)C(=C/C=C3\N(CCCCS(=O)(=O)O)c4ccccc4C3(C)C)/CCC2)=[N+](CCCCS(=O)(=O)[O-])c2ccccc21` [IR-783-S-Ph-COOH] here?
Answer: Its maximal emission wavelength is 830 nm.

Question: Which “increase in the (fluorescence) intensity after 22 h of incubation with Cathepsin B” value (P-(GGFLGK-IR783)5%) does the source give for Cathepsin B here?
Answer: Its value is 3.6-fold.

Question: What about the “increase in signal intensity over time with Cathepsin B” value (P-(GGFLGK-IR783)2.5%) of the same molecule?
Answer: Its value is “only 2-fold increase in signal intensity over time”.

Question: And the “increase in the (fluorescence) intensity after 22 h of incubation with Cathepsin B” value (P-(GGFLGK-IR783)7.5%)?
Answer: The value was 4.9-fold.

Question: What does the source list for “P-(GGFLGK-IR783)2.5%: HPMA copolymer bearing IR-783-S-Ph-COOH via degradable GGFLGK linker, 2.5 mol % dye loading (not fully specified (N-terminus); also: IR-783-S-Ph-COOH dye attached, site not given here)”?
Answer: increase in fluorescence intensity following CB degradation (Cathepsin B): 2 fold; T/B ratio in whole body imaging, 4 versus 24 h post injection (SW-480 cells [2]; 0.2 mg/200 μl): not significantly different; increase in the average fluorescence efficiency between colon and tumor tissue (SW-480 cells [2]; excised organs 24 h post injection, 0.2 mg/200 μl, FIG. 8A): 4 fold; fluorescence intensity at λ=820 nm compared with copolymers of other dye loading [3]: highest fluorescence intensity; time post injection of accumulation in tumor area (SW-480 cells [4]): about 4 h; calculated ratio of the average fluorescence efficiency between colon and tumor tissue (SW-480 cells [4]; ex vivo, 48 h post injection, FIG. 7): ~9; Biodistribution analysis: accumulation (SW-480 cells [4]; mice sacrificed 48 h post injection): significant accumulation in the tumor, kidneys and gallbladder

Question: For “P-(GGFLGK-IR783)5%: HPMA copolymer bearing IR-783-S-Ph-COOH via degradable GGFLGK linker, 5% dye loading (not fully specified; also: conjugated to HPMA copolymer via GGFLGK linker)”, which “increase in fluorescence intensity following CB degradation” value (Cathepsin B) is on record?
Answer: The value was 3.6 fold.

Question: With “P-(GGFLGK-IR783)7.5%: HPMA copolymer bearing IR-783-S-Ph-COOH via degradable (CB cleavable) GGFLGK linker, 7.5% dye loading (not fully specified; also: conjugated to HPMA copolymer via GGFLGK linker)” as the molecule, how does the “increase in fluorescence intensity following CB degradation” value (Cathepsin B) read?
Answer: Its value is 4.9 fold.

Question: What about the “T/B ratio in whole body imaging, 4 versus 24 h post injection” value (HT-29 cells; 1 mg/200 μl, HT-29 rectal model) of the same molecule?
Answer: Its value is “not significantly different”.

Question: What about the “increase in the average fluorescence efficiency between colon and tumor tissue (T/C)” value (HT-29 cells; excised organs taken 24 h post injection, 1 mg/200 μl) of the same molecule?
Answer: Its value is 1.5 fold.

Question: And the “tumor to heart ratio (T/H)” value (HT-29 cells; excised organs, 1 mg/200 μl)?
Answer: The value was 8-10 fold.

Question: What about the “increase in the average fluorescence efficiency between colon and tumor tissue (T/C), single figures” value (HT-29 cells; excised organs, FIG. 9b and FIG. 10b, respectively, listed as P-(GGFLGK (SEQ ID NO: 11)-IR783)7.5%) of the same molecule?
Answer: The value was 1.64 fold and 1.3 fold.

Question: What about the “ratio in the average fluorescence efficiency between colon and tumor tissue” value (SW-480 cells [2]; excised tumor harvested 48 h post injection, FIG. 8b) of the same molecule?
Answer: Its value is roughly 4.

Question: What about the “tumor accumulation with time” value (SW-480 cells [2]; whole body imaging) of the same molecule?
Answer: Its value is “slight increase”.

Question: What about the “time post injection of accumulation in tumor area” value (SW-480 cells [4]) of the same molecule?
Answer: Its value is “about 4 h”.

Question: What about the “T/B ratio following whole body imaging (WBI)” value (SW-480 cells [4]; 4 h post injection, 2 mg, FIG. 6) of the same molecule?
Answer: Its value is 2.4.
